Data published in US20250108017A1 (Aquestive Therapeutics, Inc., priority 2023, published 2025).
Where two headings read alike, the source gives them in different places. Each block holds one compound with its values, some of them ahead of it.

Columns and labels:
[1] = in vivo
Description: The study compared various dose routes: sublingual (SL), per oral tablet (PO), subcutaneous (SC) and intravenous (IV). […] An Oral Irritation assessment was performed (SL film group): Predose (0) and 24 hr postdose by Draize scoring.

[2] = for average flux: 16 mg/mL
Description: A franz diffusion cell is obtained and prepared.
If testing films, one can perform the following next steps: (1) weigh films, punch to match diffusion area (or smaller), reweigh, record pre- and post-punching weight; (2) wet a donor area with approximately 100 μL of phosphate buffer; (3) place film on a donor surface, top with 400 μL of phosphate buffer, and start timers.
The tissue is dermatomed to precise thickness. • 4. […] The media is selected to ensure sink conditions. • 5.
The study compared concentrations of 4 mg/mL, 8 mg/mL, 16 mg/mL and 100 mg/mL. […]

[3] = PBS (pH 7.4), 37°±1° C., n=6; cited from earlier work

% Bioavailability, DIPI AUC0-t [1]: 128.5%
% Bioavailability, EPI AUC0-t [1]: 131.0%
SMILES: CNC[C@H](O)c1ccc(OC(=O)C(C)(C)C)c(OC(=O)C(C)(C)C)c1 (racemic) [Dipivefrin, dipivefrin]

permeation as a function of solution pH [2]: slightly more favorable
average flux ([2]; 30 min): 0 μg/cm^2*min
average flux ([2]; 45 min): 0.2604 μg/cm^2*min
average flux ([2]; 60 min): 0.3125 μg/cm^2*min
average flux ([2]; 120 min): 0.6727 μg/cm^2*min
average flux ([2]; 180 min): 1.076 μg/cm^2*min
average flux ([2]; 240 min): 1.029 μg/cm^2*min
average flux ([2]; 300 min): 1.25 μg/cm^2*min
average flux ([2]; 360 min): 1.385 μg/cm^2*min
SMILES: CNC[C@H](O)c1ccc(O)c(O)c1 [Epinephrine Bitartrate]

SMILES: CC(C)NCC(O)COc1cccc2ccccc12 (stereo not drawn) [PP]
concentration of saturated solution (C0) [3]: 588005 ± 5852 µg/mL
